Source: ChEMBL document CHEMBL1212788, “Mode of action of Van-M-02, a novel glycopeptide inhibitor of peptidoglycan synthesis, in vancomycin-resistant bacteria” (Antimicrob Agents Chemother, 2010)
≈ marks a conversion by molar mass, not a printed value.

Legend:
Enterococcus faecalis [1] = experiment: Antibacterial activity against vancomycin B resistant Enterococcus faecalis isolate SR-23630 by broth dilution method; type: functional; details: isolate SR23630
Enterococcus faecalis [2] = experiment: Antibacterial activity against vancomycin A resistant Enterococcus faecalis isolate SR-7914 by broth dilution method; type: functional; details: isolate SR7914
Staphylococcus aureus [3] = experiment: Antibacterial activity against methicillin resistant Staphylococcus aureus SR-3637 by broth dilution method; type: functional; details: SR3637
Staphylococcus aureus [4] = experiment: Antibacterial activity against vancomycin A resistant Staphylococcus aureus isolate HIP11714 by broth dilution method; type: functional
Staphylococcus aureus [5] = experiment: Antibacterial activity against methicillin susceptible Staphylococcus aureus RN4220 in presence of 8 ug/mL Nalpha,Nepsilon-diacetyl-L-Lys-D-Ala-D-Lactate by broth dilution method; type: functional
Staphylococcus aureus [6] = experiment: Inhibition of lipid intermediate formation in vancomycin A resistant Staphylococcus aureus isolate HIP11714 assessed as reduction in N-acetyl-D-[1-3H]glucosamine incorporation in crude assay system; type: functional
Enterococcus faecium [7] = experiment: Antibacterial activity against vancomycin B resistant Enterococcus faecium isolate SR-23598 by broth dilution method; type: functional; details: isolate SR23598
Staphylococcus aureus [8] = experiment: Antibacterial activity against methicillin susceptible Staphylococcus aureus RN4220 in presence of 64 ug/mL Nalpha,Nepsilon-diacetyl-L-Lys-D-Ala-D-Lactate by broth dilution method; type: functional
Enterococcus faecium [9] = experiment: Antibacterial activity against constitutively vancomycin B resistant Enterococcus faecium isolate SRM1101 by broth dilution method; type: functional
Staphylococcus aureus [10] = experiment: Antibacterial activity against methicillin susceptible Staphylococcus aureus Smith by broth dilution method; type: functional
[11] = Inhibition of vancomycin A resistant Staphylococcus aureus isolate HIP11714 transglycosylase assessed as inhibition of peptidoglycan formation by crude assay
Enterococcus faecalis [12] = experiment: Antibacterial activity against vancomycin susceptible Enterococcus faecalis isolate SR1004 by broth dilution method; type: functional
Staphylococcus aureus [13] = experiment: Inhibition of lipid intermediate formation in methicillin susceptible Staphylococcus aureus RN4220 assessed as reduction in N-acetyl-D-[1-3H]glucosamine incorporation in crude assay system; type: functional
Staphylococcus aureus [14] = experiment: Antibacterial activity against methicillin susceptible Staphylococcus aureus RN4220 by broth dilution method; type: functional
[15] = Inhibition of methicillin susceptible Staphylococcus aureus RN4220 transglycosylase assessed as inhibition of peptidoglycan formation by crude assay
Staphylococcus aureus [16] = experiment: Antibacterial activity against methicillin susceptible Staphylococcus aureus RN4220 in presence of 8 ug/mL Nalpha,Nepsilon-diacetyl-L-Lys-D-Ala-D-Ala by broth dilution method; type: functional
Staphylococcus aureus [17] = experiment: Antibacterial activity against methicillin susceptible Staphylococcus aureus RN4220 in presence of 64 ug/mL Nalpha,Nepsilon-diacetyl-L-Lys-D-Ala-D-Ala by broth dilution method; type: functional
Enterococcus faecium [18] = experiment: Antibacterial activity against vancomycin sensitive Enterococcus faecium isolate SR-16972 by broth dilution method; type: functional; details: isolate SR16972
Staphylococcus aureus [19] = experiment: Antibacterial activity against vancomycin intermediate Staphylococcus aureus ATCC 700787 by broth dilution method; type: functional
Enterococcus faecium [20] = experiment: Antibacterial activity against vancomycin A resistant Enterococcus faecium isolate SR-7940 by broth dilution method; type: functional; details: isolate SR7940

Row | Structure (SMILES) | MIC (Enterococcus faecalis [1]) [µg/mL] | MIC (Enterococcus faecalis [2]) [µg/mL] | MIC (Staphylococcus aureus [3]) [µg/mL] | MIC (Staphylococcus aureus [4]) [µg/mL] | MIC (Staphylococcus aureus [5]) [µg/mL] | IC50 (Staphylococcus aureus [6]) [µg/mL] | MIC (Enterococcus faecium [7]) [µg/mL] | MIC (Staphylococcus aureus [8]) [µg/mL] | MIC (Enterococcus faecium [9]) [µg/mL] | MIC (Staphylococcus aureus [10]) [µg/mL] | IC50 [11] [µg/mL] | MIC (Enterococcus faecalis [12]) [µg/mL] | IC50 (Staphylococcus aureus [13]) [µg/mL] | MIC (Staphylococcus aureus [14]) [µg/mL] | IC50 [15] [µg/mL] | MIC (Staphylococcus aureus [16]) [µg/mL] | MIC (Staphylococcus aureus [17]) [µg/mL] | MIC (Enterococcus faecium [18]) [µg/mL] | MIC (Staphylococcus aureus [19]) [µg/mL] | MIC (Enterococcus faecium [20]) [µg/mL]
1 | CN[C@H](CC(C)C)C(=O)N[C@H]1C(=O)N[C@@H](CC(N)=O)C(=O)N[C@H]2C(=O)N[C@H]3C(=O)N[C@H](C(=O)N[C@H](C(=O)O)c4cc(O)cc(O)c4-c4cc3ccc4O)[C@H](O)c3ccc(c(Cl)c3)Oc3cc2cc(c3O[C@H]2O[C@@H](CO)[C@H](O)[C@@H](O)[C@@H]2O[C@@H]2C[C@@](C)(NCc3cccc(NC(=O)c4ccc(C)c(OCc5ccccc5)c4[N+](=O)[O-])c3)[C@@H](O)[C@@H](C)O2)Oc2ccc(cc2Cl)[C@H]1O | 0.5 (≈ 0.274 µM) | 2 (≈ 1.1 µM) | 0.25 (≈ 0.137 µM) | 4 (≈ 2.19 µM) | 0.125 | 76 (≈ 41.7 µM) | 0.25 (≈ 0.137 µM) | 0.0625 | 4 (≈ 2.19 µM) | 0.125 (≈ 0.0685 µM) | 36 (≈ 19.7 µM) | 0.25 (≈ 0.137 µM) | 32 (≈ 17.5 µM) | 0.125 (≈ 0.0685 µM) | 4.2 (≈ 2.3 µM) | 0.125 | 0.5 | 0.25 (≈ 0.137 µM) | 2 (≈ 1.1 µM) | 1 (≈ 0.548 µM)
2 | Cc1ccc(C(=O)Nc2cccc(CN[C@]3(C)C[C@@H](O[C@@H]4[C@@H](Oc5c6cc7cc5Oc5ccc(cc5Cl)[C@@H](O)[C@@H](N)C(=O)N[C@@H](CC(N)=O)C(=O)N[C@H]7C(=O)N[C@H]5C(=O)N[C@H](C(=O)N[C@H](C(=O)O)c7cc(O)cc(O)c7-c7cc5ccc7O)[C@H](O)c5ccc(c(Cl)c5)O6)O[C@@H](CO)[C@H](O)[C@H]4O)O[C@H](C)[C@@H]3O)c2)c([N+](=O)[O-])c1OCc1ccccc1 | 4 (≈ 2.36 µM) | 8 (≈ 4.72 µM) | 2 (≈ 1.18 µM) | 16 (≈ 9.43 µM) | 2 | 93 (≈ 54.8 µM) | 4 (≈ 2.36 µM) | 1 | 16 (≈ 9.43 µM) | 2 (≈ 1.18 µM) | 53 (≈ 31.2 µM) | 2 (≈ 1.18 µM) | 140 (≈ 82.5 µM) | 2 (≈ 1.18 µM) | 11 (≈ 6.48 µM) | 2 | 2 | 2 (≈ 1.18 µM) | 4 (≈ 2.36 µM) | 8 (≈ 4.72 µM)
3 | C[C@H]1O[C@H](O[C@@H]2[C@@H](Oc3c4cc5cc3Oc3ccc(cc3Cl)[C@@H](O)[C@@H](N)C(=O)N[C@@H](CC(N)=O)C(=O)N[C@H]5C(=O)N[C@H]3C(=O)N[C@H](C(=O)N[C@H](C(=O)O)c5cc(O)cc(O)c5-c5cc3ccc5O)[C@H](O)c3ccc(c(Cl)c3)O4)O[C@@H](CO)[C@H](O)[C@H]2O)C[C@@](C)(N)[C@H]1O | > 64 | > 64 | > 64 | > 64 | – | 3100 (≈ 2340 µM) | > 64 | – | > 64 | > 64 | 920 (≈ 696 µM) | > 64 | 3900 (≈ 2950 µM) | > 64 | 130 (≈ 98.3 µM) | – | – | > 64 | > 64 | > 64
4 | CN[C@H](CC(C)C)C(=O)N[C@H]1C(=O)N[C@@H](CC(N)=O)C(=O)N[C@H]2C(=O)N[C@H]3C(=O)N[C@H](C(=O)N[C@H](C(=O)O)c4cc(O)cc(O)c4-c4cc3ccc4O)[C@H](O)c3ccc(c(Cl)c3)Oc3cc2cc(c3O[C@@H]2O[C@H](CO)[C@@H](O)[C@H](O)[C@H]2O[C@H]2C[C@](C)(N)[C@H](O)[C@H](C)O2)Oc2ccc(cc2Cl)[C@H]1O [VANCOMYCIN] | 32 (≈ 22.1 µM) | > 64 | – | > 64 | – | 2300 (≈ 1590 µM) | > 64 | – | > 64 | – | 85 (≈ 58.7 µM) | 2 (≈ 1.38 µM) | 180 (≈ 124 µM) | – | 4.5 (≈ 3.11 µM) | – | 16 | – | 8 (≈ 5.52 µM) | > 64
